Laboratory results reported in patent publication US11376264B2, “Use of bromodomain-containing protein 9 antagonists in combination with vitamin D receptor agonists in diabetes treatment” (Salk Institute for Biological Studies, priority 2017, dated 2022).

How the values were obtained:
[1] = system: low-dose STZ-treated mice; assay: Low-dose STZ β cell damage mouse model; type: in vivo; conditions: for glucose control (overnight fasted glucose): i.p. 3 times a week; for serum insulin levels: mouse, in vivo
Description: 8 week old C57B16 male mice were injected intraperitoneally with streptozotocin (Sigma, S0130) at the dose of 50 mg/kg every day for 5 consecutive days.
For immunohistochemistry, FFPE tissues sections were deparaffinized and antigen retrieval performed using Vector Antigen Unmasking buffer (H3301). VectaStain ABC kit and ImmPACT DAB substrate (Vector Lab) were used to develop signal. Antibodies used: Pro-insulin (R&D, MAB13361, 1:100), insulin (Abcam, ab7842, 1:100), MAFA (Novus, NB400-137, 1:50), NKX6-1 (Cell Signaling, 54551, 1:100), and Glucagon (Abcam, ab82270, 1:100). DAPI-containing mounting media ([…] mounting medium for fluorescence) was used for nuclear staining. Immunostaining was visualized by ZEISS 780 confocal microscopy analysis.
Intraperitoneal GTTs were performed on overnight fasted mice. Blood glucose values were assessed before and at 0, 15, 30, 60, and 120 min after i.p. administration of 0.5 g/kg of glucose. Serum insulin levels were assessed before and at 0, 15, and 60 min after the i.p. administration of glucose using a rat/mouse Insulin ELISA kit (Millipore). IP-ITT assays were performed on mice after a 6 hr fast with an injection of 2 U/kg of insulin (Humalin R, Eli Lilly).

[2] = system: VDR association with BAF/PBAF complex components; assay: VDR interactome (MudPIT, Western blot) in INS1 cells expressing HA-tagged VDR; type: cell-based, rat; conditions: for VDR interactions of key components of the PBAF complex (PBRM1, ARID2): INS1 cells expressing HA-tagged VDR; for VDR association of proteins common to the BAF and PBAF complexes: e.g. SMARCA1, SMARCA2, SMARCA4
Description: Immunoprecipitations were performed as described previously (He et al., 2010, Mol. Cell 38, 428-38). Briefly, cells are lysed using ice-cold lysis buffer (HEPES 20 mM pH8, EDTA 0.2 mM, NaCl 0.3 mM, NP40 0.5%, 15% glycerol) for 15 min, and after centrifuging the supernatant was collected. For HA- or Flag-tagged proteins, immunoprecipitations were performed using HA-magnetic beads (Pierce, P188836), or Flag-magnetic beads (Sigma, M8823) for 1.5 hr at 4° C. For other immunoprecipitations, primary antibodies were incubated with lysates for 2 hr followed by Protein A magnetic beads (Life Technologies, 10001D). After 3 washes with wash buffer (HEPES 10 mM pH8, EDTA 0.2 mM, NaCl 0.3 mM, NP40 0.1%, 15% glycerol), the beads were boiled with NuPage LDS sample buffer and the lysates were stored at -20° C. Samples were precipitated by methanol/chloroform. Dried pellets were dissolved in 8 M urea/100 mM TEAB, pH 8.5. […] Proteins were digested overnight at 37° C. in 2 M urea/100 mM TEAB, pH 8.5, with trypsin (Promega). Digestion was quenched with formic acid, 5% final concentration. The digested samples were analyzed on a Fusion Orbitrap tribrid mass spectrometer (Thermo). The digest was injected directly onto a 30 cm, 75 um ID column packed with BEH 1.7 um C18 resin (Waters). Samples were separated at a flow rate of 200 nl/min on a nLC 1000 (Thermo). […] Column was re-equilibrated with 20 ul of buffer A prior to the injection of sample. Peptides were eluted directly from the tip of the column and nanosprayed directly into the mass spectrometer by application of 2.5 kV voltage at the back of the column. The Orbitrap Fusion was operated in a data-dependent mode. Full MS1 scans were collected in the Orbitrap at […] resolution with a mass range of 400 to 1600 m/z and an AGC target of 5e5. The cycle time was set to 3 sec, and within this 3 sec the most abundant ions per scan were selected for CID MS/MS in the ion trap with an AGC target of 1e4 and minimum intensity of 5000. Maximum fill times were set to 50 ms and 100 ms for MS and MS/MS scans respectively. Quadrupole isolation at 1.6m/z was used, monoisotopic precursor selection was enabled and dynamic exclusion was used with exclusion duration of 5 sec. Protein and peptide identification were done with Integrated Proteomics Pipeline-IP2 (Integrated Proteomics Applications). Tandem mass spectra were extracted from raw files using RawConverter (ref1) and searched with ProLuCID (ref2) against rat UniProt database. The search space included all fully-tryptic and half-tryptic peptide candidates. Carbamidomethylation on cysteine was considered as a static modification. Acetylation (42.010565) was considered as a differential modification on Lysine and the N-terminus. […]

VDR-BRD9 interaction = biological target: T1, VDR-BRD9 interaction (Homo sapiens, UniProt P11473+Q9H8M2); assay: Co-immunoprecipitation of VDR and BRD9 in 293T cells; type: cell-based; conditions: proteomic and Western blot
T1 construct: endogenous BRD9 co-immunoprecipitates with HA-tagged VDR; expressed in transfected cells; host or cells: 293T
T1 sequence (P11473 1-427): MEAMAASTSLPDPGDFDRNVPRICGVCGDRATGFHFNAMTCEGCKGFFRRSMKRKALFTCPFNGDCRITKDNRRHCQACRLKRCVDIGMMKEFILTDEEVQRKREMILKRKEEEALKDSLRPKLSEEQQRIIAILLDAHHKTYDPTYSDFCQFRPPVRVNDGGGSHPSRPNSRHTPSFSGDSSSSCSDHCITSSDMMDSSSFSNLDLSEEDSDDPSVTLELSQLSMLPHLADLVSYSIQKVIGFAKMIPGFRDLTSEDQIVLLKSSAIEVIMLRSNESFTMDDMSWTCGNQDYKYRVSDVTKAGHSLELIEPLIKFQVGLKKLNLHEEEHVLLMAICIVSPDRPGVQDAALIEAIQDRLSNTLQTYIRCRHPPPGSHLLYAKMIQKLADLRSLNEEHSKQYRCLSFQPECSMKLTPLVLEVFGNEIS
T1 sequence (Q9H8M2 1-597): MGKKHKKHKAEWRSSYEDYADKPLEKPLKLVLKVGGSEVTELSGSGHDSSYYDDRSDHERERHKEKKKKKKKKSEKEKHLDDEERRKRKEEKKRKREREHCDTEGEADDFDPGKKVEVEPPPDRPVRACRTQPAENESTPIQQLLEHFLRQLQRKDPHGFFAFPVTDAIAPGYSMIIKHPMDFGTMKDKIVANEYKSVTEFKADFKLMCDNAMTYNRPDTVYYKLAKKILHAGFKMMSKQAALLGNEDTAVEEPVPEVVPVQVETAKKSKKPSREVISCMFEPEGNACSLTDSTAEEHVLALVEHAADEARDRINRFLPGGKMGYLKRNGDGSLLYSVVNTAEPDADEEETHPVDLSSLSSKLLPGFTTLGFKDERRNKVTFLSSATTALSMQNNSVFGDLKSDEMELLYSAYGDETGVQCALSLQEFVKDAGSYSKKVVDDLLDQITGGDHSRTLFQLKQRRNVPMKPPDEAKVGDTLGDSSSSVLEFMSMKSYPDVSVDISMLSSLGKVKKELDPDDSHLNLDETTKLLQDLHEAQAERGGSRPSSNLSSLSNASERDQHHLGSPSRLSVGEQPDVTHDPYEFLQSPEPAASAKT
Description: Briefly, cells are lysed using ice-cold lysis buffer (HEPES 20 mM pH8, EDTA 0.2 mM, NaCl 0.3 mM, NP40 0.5%, 15% glycerol) for 15 min, and after centrifuging the supernatant was collected. For HA- or Flag-tagged proteins, immunoprecipitations were performed using HA-magnetic beads (Pierce, P188836), or Flag-magnetic beads (Sigma, M8823) for 1.5 hr at 4° C. For other immunoprecipitations, primary antibodies were incubated with lysates for 2 hr followed by Protein A magnetic beads (Life Technologies, 10001D). After 3 washes with wash buffer (HEPES 10 mM pH8, EDTA 0.2 mM, NaCl 0.3 mM, NP40 0.1%, 15% glycerol), the beads were boiled with NuPage LDS sample buffer and the lysates were stored at −20° C.

Compound | glucose control (overnight fasted glucose) [1] | serum insulin levels [1] | VDR interactions of key components of the PBAF complex (PBRM1, ARID2) [2] | VDR association of proteins common to the BAF and PBAF complexes [2] | interaction between VDR and BRD9 (VDR-BRD9 interaction)
C=C1/C(=C\C=C2/CCC[C@]3(C)[C@@H]([C@H](C)/C=C/[C@@H](O)C4CC4)CC[C@@H]23)C[C@@H](O)C[C@@H]1O [Cal, calcipotriol] | limited to no benefit | increased levels of insulin | significantly increased | increased | –
CCn1cc(-c2cccc(C(F)(F)F)c2)c2sc(C(=N)NC3CCS(=O)(=O)CC3)cc2c1=O [iBRD9] | limited to no benefit | increased levels of insulin | significantly increased | increased | reduced the interaction between VDR and BRD9
